This is an account of results in patent US8614201B2 (Janssen Pharmaceutica NV, priority 2009, dated 2013).

Human TRPA1, sequence (O75762 whole entry): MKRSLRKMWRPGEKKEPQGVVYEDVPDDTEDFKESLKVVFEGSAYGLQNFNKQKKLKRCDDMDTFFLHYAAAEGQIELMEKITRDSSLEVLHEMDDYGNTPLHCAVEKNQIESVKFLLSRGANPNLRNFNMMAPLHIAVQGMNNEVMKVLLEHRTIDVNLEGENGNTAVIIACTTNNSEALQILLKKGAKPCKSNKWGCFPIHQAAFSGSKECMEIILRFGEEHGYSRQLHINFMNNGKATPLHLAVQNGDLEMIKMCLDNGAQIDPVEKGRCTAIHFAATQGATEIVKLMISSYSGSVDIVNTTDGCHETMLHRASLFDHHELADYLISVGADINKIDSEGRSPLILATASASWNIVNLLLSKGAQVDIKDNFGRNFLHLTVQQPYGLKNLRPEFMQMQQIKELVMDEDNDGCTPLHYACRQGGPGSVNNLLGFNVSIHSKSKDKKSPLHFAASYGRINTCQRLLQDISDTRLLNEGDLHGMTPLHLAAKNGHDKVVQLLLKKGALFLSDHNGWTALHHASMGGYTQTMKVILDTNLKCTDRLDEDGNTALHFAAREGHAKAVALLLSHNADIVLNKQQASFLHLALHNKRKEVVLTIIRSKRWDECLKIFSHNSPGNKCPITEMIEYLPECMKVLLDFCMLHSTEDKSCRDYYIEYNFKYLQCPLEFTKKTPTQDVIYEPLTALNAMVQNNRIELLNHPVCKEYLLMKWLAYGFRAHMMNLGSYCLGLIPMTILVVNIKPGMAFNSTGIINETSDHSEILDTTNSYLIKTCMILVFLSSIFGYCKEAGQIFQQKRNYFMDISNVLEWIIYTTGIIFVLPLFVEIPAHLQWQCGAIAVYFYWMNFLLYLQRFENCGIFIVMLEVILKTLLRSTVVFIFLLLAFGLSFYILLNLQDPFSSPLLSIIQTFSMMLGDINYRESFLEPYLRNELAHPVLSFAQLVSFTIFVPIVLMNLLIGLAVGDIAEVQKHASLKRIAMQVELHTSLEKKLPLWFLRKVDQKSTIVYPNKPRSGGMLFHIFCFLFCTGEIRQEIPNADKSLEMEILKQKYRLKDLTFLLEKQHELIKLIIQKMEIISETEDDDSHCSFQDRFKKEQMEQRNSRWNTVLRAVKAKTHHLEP

The target in the experiment is Human TRPA1 (Homo sapiens, UniProt O75762). The experiment is described as follows: Assay 1: In vitro cellular testing of TRPA1 modulation (CHO-TREx, Fluo-3 calcium fluorescence, AITC agonist). In kind it is cell-based. The settings on record: CHO-TREx cells expressing human TRPA1; Fluo-3 fluorescence (FLIPR/Tetra); agonist 15 μM allyl isothiocyanate (AITC); 30 minute antagonist incubation. More on the design: expressed in transfected cells; host or cells: CHO-TREx cells (Invitrogen), vector pcDNA4/TO. Summed up:
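Antagonist potency is the 50% reduction of the AITC (15 μM) calcium response, Hill-fitted against no-antagonist and 10 μM ruthenium red controls. Fluo-3-loaded (4 μM) CHO-TREx cells with tetracycline-inducible human TRPA1 got compound in HEPES saline pH 7.4 for 30 min, usually from 10 μM in three-fold dilutions.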
With `N#Cc1ccc(-c2cccc(CNC(=O)[C@@H]3CCCN3S(=O)(=O)c3ccc(F)cc3)c2)cc1` [Example 86, 1-(4-Fluoro-benzenesulfonyl)-pyrrolidine-2S-carboxylic acid (4′-cyano-biphenyl-3-ylmethyl)-amide], the IC50 turned out to be 85 nM. `Cc1ccc(-c2cccc(CNC(=O)[C@@H]3CCCN3S(=O)(=O)c3ccc(F)cc3)c2)cn1` [Example 87, 1-(4-Fluorobenzenesulfonyl)-pyrrolidine-2S-carboxylic acid 3-(6-methylpyridin-3-yl)-benzyl amide]: the IC50 worked out at 1790 nM. For the compound `O=C(NCc1cccc(-c2ccc(C(F)(F)F)nc2)c1)[C@@H]1CCCN1S(=O)(=O)c1ccc(F)cc1` [Example 88, 1-(4-Fluorobenzenesulfonyl)-pyrrolidine-2S-carboxylic acid 3-(6-trifluoromethylpyridin-3-yl)-benzyl amide], the IC50 came to 17 nM. The value for `CC(=O)c1ccc(-c2cccc(CNC(=O)[C@@H]3CCCN3S(=O)(=O)c3ccc(F)cc3)c2)cc1` [Example 89, 1-(4-Fluorobenzenesulfonyl)-pyrrolidine-2S-carboxylic acid (4′-acetylbiphenyl-3-ylmethyl)-amide] was 844 nM; that for `COc1ccc(-c2cccc(CNC(=O)[C@@H]3CCCN3S(=O)(=O)c3ccc(F)cc3)c2)nc1` [Example 90, 1-(4-Fluorobenzenesulfonyl)-pyrrolidine-2S-carboxylic acid 3-(5-methoxypyridin-2-yl)-benzylamide] was 8300 nM. `O=C(NCc1cccc(-c2ccc(Cl)cn2)c1)[C@@H]1CCCN1S(=O)(=O)c1ccc(F)cc1` [Example 91, 1-(4-Fluorobenzenesulfonyl)-pyrrolidine-2S-carboxylic acid 3-(5-chloropyridin-2-yl)-benzylamide]: the IC50 amounted to 175 nM. On to `O=C(NCc1cccc(-c2ccc(C(F)(F)F)cn2)c1)[C@@H]1CCCN1S(=O)(=O)c1ccc(F)cc1` [Example 92, 1-(4-Fluorobenzenesulfonyl)-pyrrolidine-2S-carboxylic acid 3-(5-trifluoromethylpyridin-2-yl)-benzylamide], for which the IC50 was found to be 17 nM.

As to `CN(C)c1ccc(-c2cccc(CNC(=O)[C@@H]3CCCN3S(=O)(=O)c3ccc(F)cc3)c2)cc1` [Example 93, 1-(4-Fluorobenzenesulfonyl)-pyrrolidine-2S-carboxylic acid (4′-dimethylaminobiphenyl-3-ylmethyl)-amide], the IC50 is 86 nM. Take `O=C(NCc1cccc(-c2ccc(N3CCOCC3)cc2)c1)[C@@H]1CCCN1S(=O)(=O)c1ccc(F)cc1` [Example 94, 1-(4-Fluorobenzenesulfonyl)-pyrrolidine-2S-carboxylic acid (4′-morpholin-4-yl-biphenyl-3-ylmethyl)-amide]: the IC50 worked out at 1630 nM.

As to `Cn1ccc2cc(-c3cccc(CNC(=O)[C@@H]4CCCN4S(=O)(=O)c4ccc(F)cc4)c3)ccc21` [Example 96, 1-(4-Fluoro-benzenesulfonyl)-pyrrolidine-2S-carboxylic acid 3-(1-methyl-1H-indol-5-yl)-benzylamide], the IC50 turned out to be 432 nM. In the case of `O=C(NCc1cccc(-c2ccc(N3CCOCC3)nc2)c1)[C@@H]1CCCN1S(=O)(=O)c1ccc(F)cc1` [Example 97, 1-(4-Fluorobenzenesulfonyl)-pyrrolidine-2S-carboxylic acid 3-(6-morpholin-4-yl-pyridin-3-yl)-benzylamide], the IC50 worked out at 1710 nM. On to `O=C(NCc1cccc(-c2ccccc2)c1)[C@@H]1CCCN1S(=O)(=O)c1ccc(F)cc1` [Example 98, 1-(4-Fluorobenzenesulfonyl)-pyrrolidine-2S-carboxylic acid (biphenyl-3-ylmethyl)-amide], for which the IC50 came out at 381 nM.

`O=C(NCc1cccc(-c2ccc3cc[nH]c3c2)c1)[C@@H]1CCCN1S(=O)(=O)c1ccc(F)cc1` [Example 101, 1-(4-Fluorobenzenesulfonyl)-pyrrolidine-2S-carboxylic acid 3-(1H-indol-6-yl)-benzylamide]: the IC50 stood at 4050 nM. Then `O=C(NCc1cccc(-c2ccc(CN3CCOCC3)cc2)c1)[C@@H]1CCCN1S(=O)(=O)c1ccc(F)cc1` [Example 102, 1-(4-Fluorobenzenesulfonyl)-pyrrolidine-2S-carboxylic acid (4′-morpholin-4-ylmethylbiphenyl-3-ylmethyl)-amide], with 1700 nM; and `O=C(NCc1cccc(-c2ccc(N3CCCCC3)cc2)c1)[C@@H]1CCCN1S(=O)(=O)c1ccc(F)cc1` [Example 103, 1-(4-Fluoro-benzenesulfonyl)-pyrrolidine-2S-carboxylic acid (4′-piperidin-1-yl-biphenyl-3-ylmethyl)-amide], with 252 nM; and `CN(C)c1ccc(-c2cccc(CNC(=O)[C@@H]3CCCN3S(=O)(=O)c3ccc(F)cc3)c2)cn1` [Example 104, 1-(4-Fluorobenzenesulfonyl)-pyrrolidine-2S-carboxylic acid 3-(6-dimethylaminopyridin-3-yl)-benzylamide], with 460 nM.

Consider `O=C(NCc1cccc(-c2cnc3ccccc3c2)c1)[C@@H]1CCCN1S(=O)(=O)c1ccc(F)cc1` [Example 105], for which the IC50 was 1030 nM.

With `O=C(NCc1cccc(-c2ccc3ncccc3c2)c1)[C@@H]1CCCN1S(=O)(=O)c1ccc(F)cc1` [Example 106, 1-(4-Fluoro-benzenesulfonyl)-pyrrolidine-2S-carboxylic acid 3-quinolin-6-yl-benzylamide], the IC50 turned out to be 594 nM.

For the compound `O=C(NCc1cccc(-c2ccc3ccccc3n2)c1)[C@@H]1CCCN1S(=O)(=O)c1ccc(F)cc1` [Example 107, 1-(4-Fluoro-benzenesulfonyl)-pyrrolidine-2S-carboxylic acid 3-quinolin-2-yl-benzylamide], the IC50 was 518 nM. On to `Cn1ccc2ccc(-c3cccc(CNC(=O)[C@@H]4CCCN4S(=O)(=O)c4ccc(F)cc4)c3)cc21` [Example 108, 1-(4-Fluorobenzenesulfonyl)-pyrrolidine-2S-carboxylic acid 3-(1-methyl-1H-indol-6-yl)-benzylamide], for which the IC50 was determined as 2530 nM. The value for `O=C(NCc1cccc(-c2ccc(C(F)(F)F)cc2)c1)[C@@H]1[C@H]2C[C@H]2CN1S(=O)(=O)c1ccc(F)cc1` [Example 109, 3-(4-Fluorobenzenesulfonyl)-3-aza-1S,5R-bicyclo[3.1.0]hexane-2S-carboxylic acid (4′-trifluoromethylbiphenyl-3-ylmethyl)-amide] was 319 nM. Consider `O=C(NCc1cccc(-c2ccc(C(F)(F)F)cc2)c1)[C@@H]1[C@H]2C[C@H]2CN1S(=O)(=O)c1ccc(Cl)s1` [Example 110, 3-(5-Chlorothiophene-2-sulfonyl)-3-aza-1S,5R-bicyclo[3.1.0]hexane-2S-carboxylic acid (4′-trifluoromethylbiphenyl-3-ylmethyl)-amide], for which the IC50 was 92 nM. The value for `O=C(NCc1cccc(-c2ccc(C(F)(F)F)cc2)c1)[C@@H]1C=CCN1S(=O)(=O)c1ccc(F)cc1` [Example 111, 1-(4-Fluorobenzenesulfonyl)-2,5-dihydro-1H-pyrrole-2S-carboxylic acid (4′-trifluoromethylbiphenyl-3-ylmethyl)-amide] was 14 nM; that for `O=C(NCc1cccc(-c2ccc(C(F)(F)F)cc2)c1)[C@@H]1C=CCN1S(=O)(=O)c1ccc(Cl)s1` [Example 112, 1-(5-Chlorothiophene-2-sulfonyl)-2,5-dihydro-1H-pyrrole-2S-carboxylic acid (4′-trifluoromethylbiphenyl-3-ylmethyl)-amide] was 11 nM.
